Experimental data from ChEMBL document CHEMBL1152980, “Identification of enoxacin as an inhibitor of osteoclast formation and bone resorption by structure-based virtual screening” (J Med Chem, 2009).
pIC50: −log10 of the molar value. Calls of active or inactive are those of the source. The rule behind the calls is not given here.

Tests used:
Osteoclast [1] = assay: Antiresorptive activity in 1,25-dihydroxyvitamin D3-stimulated Swiss Webster mouse osteoclast assessed as blockade of ruffled membrane formation on bone slices at 1 uM after 3 days; type: functional, cell-based
Osteoclast [2] = assay: Antiresorptive activity in 1,25-dihydroxyvitamin D3-stimulated Swiss Webster mouse osteoclast assessed as blockade of actin ring formation on bone slices at 1 uM after 3 days; type: functional, cell-based
Osteoclast [3] = assay: Antiresorptive activity in 1,25-dihydroxyvitamin D3-stimulated Swiss Webster mouse osteoclast assessed as blockade of ruffled membrane formation on bone slices at 10 uM after 3 days; type: functional, cell-based
[4] = Cytotoxicity against mouse MC3T3-E1 cells assessed as change in morphology at 100 uM after 3 days; type: cell-based; conditions: mc3t3-e1, 72 h
Bone marrow cell [5] = assay: Antiresorptive activity in 1,25-dihydroxyvitamin D3-stimulated Swiss Webster mouse bone marrow cells assessed as reduction in bone pit formation at 25 uM after 5 days; type: functional, cell-based
[6] = molecular target: V-type proton ATPase subunit B, brain isoform (Homo sapiens, UniProt P21281); assay: Inhibition of maltose binding protein-fused human V-ATPase subunit B2 binding to F-actin
Osteoclast [7] = assay: Antiresorptive activity in 1,25-dihydroxyvitamin D3-stimulated Swiss Webster mouse osteoclast assessed as blockade of actin ring formation on bone slices at 10 uM after 3 days; type: functional, cell-based
[8] = molecular target: V-type proton ATPase subunit B (Saccharomyces cerevisiae S288c) (UniProt P16140); assay: Inhibition of Saccharomyces cerevisiae V-ATPase subunit B expressed in Escherichia coli binding to rabbit muscle actin filament at 100 uM by pelleting assay; conditions: Muscle tissue
Bone marrow cell [9] = assay: (§1) Antiresorptive activity against 1,25-dihydroxyvitamin D3-stimulated osteoclast formation in Swiss Webster mouse bone marrow cells assessed as reduction of tartrate-resistant acid phosphatase activity after 7 days; type: functional, cell-based
[10] = Reduction in osteoblast formation from mouse MC3T3-E1 cells assessed as alkaline phosphatase activity at 100 uM after 3 days; type: cell-based; conditions: mc3t3-e1, 72 h
Osteoclast [11] = assay: Antiresorptive activity in 1,25-dihydroxyvitamin D3-stimulated Swiss Webster mouse osteoclast assessed as blockade of actin ring formation on bone slices at 100 uM after 3 days; type: functional, cell-based
Bone marrow cell [12] = assay: Antiresorptive activity in 1,25-dihydroxyvitamin D3-stimulated Swiss Webster mouse bone marrow cells after 5 days; type: functional, cell-based
Bone marrow cell [13] = assay: Antiresorptive activity in 1,25-dihydroxyvitamin D3-stimulated Swiss Webster mouse bone marrow cells assessed as reduction in resorptive area at 25 uM after 5 days; type: functional, cell-based
Osteoclast [14] = assay: Antiresorptive activity in 1,25-dihydroxyvitamin D3-stimulated Swiss Webster mouse osteoclast assessed as blockade of ruffled membrane formation on bone slices at 100 uM after 3 days; type: functional, cell-based
[15] = Reduction in mouse MC3T3-E1 cell growth at 100 uM after 3 days; type: cell-based; conditions: mc3t3-e1, 72 h
Bone marrow cell [16] = assay: Antiresorptive activity in 1,25-dihydroxyvitamin D3-stimulated Swiss Webster mouse bone marrow cells at 100 uM after 5 days; type: functional, cell-based
Bone marrow cell [17] = assay: Antiresorptive activity in 1,25-dihydroxyvitamin D3-stimulated Swiss Webster mouse bone marrow cells assessed as reduction in bone pit formation at 10 uM after 5 days; type: functional, cell-based
[18] = as §1; type: functional, cell-based; conditions: Bone marrow cell, 168 h

Chain of V-type proton ATPase subunit B (Saccharomyces cerevisiae S288c) (P16140 whole entry): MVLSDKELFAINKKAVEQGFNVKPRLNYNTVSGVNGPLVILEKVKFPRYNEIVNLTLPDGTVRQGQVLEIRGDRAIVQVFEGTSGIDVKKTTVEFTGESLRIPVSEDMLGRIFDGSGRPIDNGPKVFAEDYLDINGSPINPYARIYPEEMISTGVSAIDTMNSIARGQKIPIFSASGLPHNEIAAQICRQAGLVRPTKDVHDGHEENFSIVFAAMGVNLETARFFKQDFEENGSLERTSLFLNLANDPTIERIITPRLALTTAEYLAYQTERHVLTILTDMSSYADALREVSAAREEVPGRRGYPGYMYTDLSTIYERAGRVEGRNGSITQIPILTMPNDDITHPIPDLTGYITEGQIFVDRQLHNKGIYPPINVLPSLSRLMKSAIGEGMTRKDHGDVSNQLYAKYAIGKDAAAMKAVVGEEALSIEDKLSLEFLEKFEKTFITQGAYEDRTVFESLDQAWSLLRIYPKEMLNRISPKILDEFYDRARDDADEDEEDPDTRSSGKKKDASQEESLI
Chain of V-type proton ATPase subunit B, brain isoform (P21281 whole entry, the tested form may be a part, canonical isoform): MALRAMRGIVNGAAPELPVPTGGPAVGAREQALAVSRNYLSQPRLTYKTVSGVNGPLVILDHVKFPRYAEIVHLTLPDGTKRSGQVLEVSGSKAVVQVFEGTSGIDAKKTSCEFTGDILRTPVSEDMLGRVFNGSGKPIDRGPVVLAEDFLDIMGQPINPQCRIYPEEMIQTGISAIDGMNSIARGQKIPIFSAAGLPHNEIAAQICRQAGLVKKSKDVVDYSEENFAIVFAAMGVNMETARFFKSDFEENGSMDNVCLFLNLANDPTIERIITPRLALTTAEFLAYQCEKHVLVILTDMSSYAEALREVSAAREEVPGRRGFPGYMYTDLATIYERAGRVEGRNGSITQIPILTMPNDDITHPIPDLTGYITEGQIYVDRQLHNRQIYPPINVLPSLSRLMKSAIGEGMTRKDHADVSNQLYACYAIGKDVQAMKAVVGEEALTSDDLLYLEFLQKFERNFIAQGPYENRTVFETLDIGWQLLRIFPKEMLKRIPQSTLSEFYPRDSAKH

Compound	Activity (Osteoclast [1])	Activity (Osteoclast [2])	Activity (Osteoclast [3])	Activity [4]	Activity (Bone marrow cell [5])	pIC50 [6]	Activity (Osteoclast [7])	inhibition [8]	Activity (Bone marrow cell [9])	Activity [10]	Activity (Osteoclast [11])	Activity (Bone marrow cell [12])	Activity (Bone marrow cell [13])	Activity (Osteoclast [14])	Activity [15]	Activity (Bone marrow cell [16])	Activity (Bone marrow cell [17])	pIC50 [18]
CCn1cc(C(=O)O)c(=O)c2cc(F)c(N3CCNCC3)nc21 [ENOXACIN]	inactive	inactive	Active	Toxic	Active	5.00	Active	Active	Dose-dependent effect	Toxic	Active	Dose-dependent effect	Active	Active	Toxic	Active	Active	
CCn1cc(C(=O)O)c(=O)c2cc(F)c(N3CCN(C)CC3)cc21 [PEFLOXACIN]																		< 4.30
